How the values were obtained:
NF-κB = assay: NF-κB-Luciferase reporter assay in THP-1 NF-κB-Lucia cells; assay type: cell-based, human
Procedure: NF-κB-Luciferase reporter assay. THP-1 NF-κB-Lucia cells were plated at 10,000 cells per well with 10 ng/mL PMA. Three days later, media was removed and replaced with media containing LPS (1 μg/mL) and dilution series of compounds in flat bottom clear 96-well plates for 24 hours. A day later, 20 μL of media was transferred to a 96-well white plate and 50 μL of QuantiLuc Gold reagent (InvivoGen rep-qlcg5) was added per well; plate was mixed in the plate reader and luminescence was read using a Promega GloMax Reader.

tau phosphorylation = assay: Tau phosphorylation in induced neurons (iNs); assay type: cell-based; conditions: FIG. 14
IκBα = assay: Immunoblot of IκBα and pIκB S32 in inflamed astrocytes; assay type: cell-based, human; conditions: 6 hours
Procedure: Western blotting. For drug treatment assays, cells were treated with vehicle (DMSO) or 20 μM compound and stimulated with IL1B 10 ng/mL for 1 h, 6 h, or 24 h. Cells were dissociated with 1:1 Accutase:papain for 3 min at rt, pelleted for 5 min at 800 g, and washed twice with cold DPBS. Pellets were lysed with RIPA buffer (Sigma R^0278) supplemented with Halt protease inhibitor cocktail (Thermo Fisher 78445) and clarified by centrifugation (16,000 g, 10 min, 4° C.). Protein concentration was determined by BCA assay (Thermo Fisher). Proteins were denatured in 1×LDS Buffer and 2.5% beta-mercaptoethanol (Sigma) for 10 min at 70° C., separated on Bolt 4-12% Bis-Tris Plus polyacrylamide gels (Thermo Fisher), transferred to PVDF membranes using the iBlot 2 Dry Blotting System, and blocked with 0.1% casein-PBS (Bio-Rad) for 1 h at room temperature. The blots were incubated with primary antibodies overnight at 4° C. in PBS containing 0.1% casein and 0.2% Tween-20. […] The blots were imaged using the Odyssey CLx imaging system and blots were analyzed on the ImageStudio software (LI-COR).

IL-6 and TNFAIP2 = IL-6 and TNFAIP2 induction in AD patient-derived astrocytes; assay type: cell-based, human; conditions: IL1-β
[1] = tested on: human iPSC-derived microglia; assay: Cytokine release assay in LPS-stimulated iPSC-derived microglia; assay type: cell-based; conditions: 20 μM, panel of 36 cytokines, p<0.05
Procedure: Cytokine release assay. […] Subsequently, media cleared of cells and debris was collected, snap-frozen and stored at −80° C. until processing with the Human Cytokine Array kit (R&D Systems, Catalog #ARY005). Briefly, media was diluted in Array Buffer 4 and incubated with a cocktail of biotinylated detection antibodies for 1 h at room temperature with rocking. The resulting immunocomplexes were incubated with nitrocellulose membranes spotted with capture antibodies overnight at 4° C. (see below for full list of targets). The membranes were washed 4× with Wash Buffer, then incubated with IRDye 800CW Streptavidin for 30 minutes at room temperature (1:2000 in Array Buffer 5, LI-COR #926-32230). The membranes were washed 4× and imaged with an Odyssey CLx instrument. Intensity for each spot was quantified with ImageStudio. Technical duplicate values for each target were averaged, and differential cytokine release by microglia exposed to LPS+vehicle versus vehicle only was determined (n=2 biological replicates, two-tailed t-tests, P<0.05).

CK2α1 and CK2α2 = assay: CK2 protein levels by Western in IL1-β-stimulated astrocytes; assay type: cell-based, human; conditions: after 5 hours
Procedure: Western blotting. For drug treatment assays, cells were treated with vehicle (DMSO) or 20 μM compound and stimulated with IL1B 10 ng/mL for 1 h, 6 h, or 24 h. Cells were dissociated with 1:1 Accutase:papain for 3 min at rt, pelleted for 5 min at 800 g, and washed twice with cold DPBS. […] Protein concentration was determined by BCA assay (Thermo Fisher). […] The blots were incubated with primary antibodies overnight at 4° C. in PBS containing 0.1% casein and 0.2% Tween-20. […] The membranes were washed 5× with 0.1% PBS-Tween20 (PBST) and incubated with secondary antibodies (1:20,000) for 1 h at rt in PBS with 0.1% casein, 0.2% Tween20, and 0.1% SDS. […] The blots were then washed 4× with PBST and 1× with DPBS. The blots were imaged using the Odyssey CLx imaging system and blots were analyzed on the ImageStudio software (LI-COR).

SMILES: COc1cc(-c2cc(=O)c3c(O)cc(O)cc3o2)ccc1O [CHR, Chrysoeriol]
- IC50 (NF-κB; Homo sapiens, THP-1, FIG. 5B, read-out: IC50 in THP-1 monocyte NF-κB-Luciferase reporter cells): < 4 µM
- SAR summary: activity in NF-κB reporter assay and for CK2 kinase inhibition (NF-κB; at 20 μM, FIG. 5A, some values sourced from Baier et al. (2017) and Lolli et al. (2012)): active
- Tau phosphorylation (tau phosphorylation): reduces
- IκBα levels (IκBα): dose-dependently boosted
- phosphorylated IκB S32 (IκBα): remained unchanged
- Hyperinflammatory phenotype (IL-6 and TNFAIP2 induction) (IL-6 and TNFAIP2): mitigated
- Release of LPS-induced pro-inflammatory cytokines [1]: significantly blocked
- CK2α1 and CK2α2 levels (CK2α1 and CK2α2): reduced to baseline

Source: patent publication US20260199350A1, “FLAVONES, QUINOLINONES, QUINAZOLINONES, AND AURONES, AND USES IN CK2-MEDIATED DISEASES” (Salk Institute for Biological Studies, priority 2022, published 2026)
